Assay results published in patent US8791139B2, “Anthranilic diamide derivatives” (Bayer Cropscience AG, priority 2010, dated 2014).

assay: logP by HPLC on reversed-phase columns (C18), EEC Directive 79/831 Annex V.A8; assay type: physicochemical; settings: HPLC reversed-phase C18, acidic range pH 2.7; Preparation Examples (intermediates)
Procedure: The logP values reported in the table above and in the Preparation Examples were determined in accordance with EEC Directive 79/831 Annex V.A8 by HPLC (High Performance Liquid Chromatography) on reversed-phase columns (C18), with the following methods:
The LC-MS determination in the acidic range is carried out at pH 2.7 using the mobile phases 0.1% aqueous formic acid and acetonitrile (contains 0.1% formic acid), linear gradient from 10% acetonitrile to 95% acetonitrile
Calibration was carried out using unbranched alkan-2-ones (having from 3 to 16 carbon atoms) with known logP values (the logP values were determined by the retention times using linear interpolation between two successive alkanones).

logP | Structure (SMILES)
2.67 | O=C(Nc1ccc(C(F)(F)F)cc1)c1cc(C(=O)O)n(-c2ncccc2Cl)n1 [Example No. III-8]

same assay, conditions: pH 2.7, log P

Structure (SMILES) | chromatographic logP
Cc1cc(Cl)cc(C(N)=O)c1NC(=O)c1cc(C(=O)C(=O)c2ccc(Cl)cc2Cl)nn1-c1ncccc1Cl [Example 31] | 3.51
CNC(=O)c1cc(Br)cc(C)c1NC(=O)c1cc(C(=O)Nc2ccc(C(F)(F)F)cc2)nn1-c1ncccc1Cl [Example 2] | 3.53
Cc1cc(C#N)cc(C(=O)NC(C)C)c1NC(=O)c1cc(Nc2cccc(C(F)(F)F)c2)nn1-c1ncccc1Cl [Example 75] | 3.66
Cc1cc(C#N)cc(C(=O)NC(C)(C)C)c1NC(=O)c1cc(C(=O)Cn2nnc(C(F)(F)F)n2)nn1-c1ncccc1Cl [Example 16] | 3.66
Cc1cc(Cl)cc(C(=O)NC2CC2)c1NC(=O)c1cc(CNS(=O)(=O)c2ccccc2Cl)nn1-c1ncccc1Cl [Example 39] | 2.8
Cc1cc(Cl)cc(C(=O)NC(C)C)c1NC(=O)c1cc(CNS(=O)(=O)c2cccc(C(F)(F)F)c2)nn1-c1ncccc1Cl [Example 48] | 3.43
CNC(=O)c1cc(C#N)cc(C)c1NC(=O)c1cc(Nc2cccc(C(F)(F)F)n2)nn1-c1ncccc1Cl [Example 69] | 2.89
CNC(=O)c1cc(Cl)cc(C)c1NC(=O)c1cc(CNS(=O)(=O)c2ccccc2Cl)nn1-c1ncccc1Cl [Example 37] | 2.58
Cc1cc(Cl)cc(C(=O)NC(C)C)c1NC(=O)c1cc(CNS(=O)(=O)Cc2cccc(C(F)(F)F)c2)nn1-c1ncccc1Cl [Example 51] | 3.42
Cc1cc(Cl)cc(C(=O)NC(C)C)c1NC(=O)c1cc(CNS(=O)(=O)Cc2ccc(C(F)(F)F)cc2)nn1-c1ncccc1Cl [Example 50] | 2.28
Cc1cc(Cl)cc(C(=O)NC(C)C)c1NC(=O)c1cc(CNS(=O)(=O)c2cccc(Cl)c2)nn1-c1ncccc1Cl [Example 43] | 3.25
Cc1cc(Cl)cc(C(=O)NC(C)C)c1NC(=O)c1cc(CNS(=O)(=O)c2ccccc2C(F)(F)F)nn1-c1ncccc1Cl [Example 45] | 3.26
Cc1cc(Cl)cc(C(=O)NC(C)C)c1NC(=O)c1cc(CNS(=O)(=O)c2ccc(Cl)cc2)nn1-c1ncccc1Cl [Example 47] | 3.25
CNC(=O)c1cc(C#N)cc(C)c1NC(=O)c1cc(C#Cc2ccc(OC)cc2)nn1-c1ncccc1Cl [Example 8] | 3.11
Cc1cc(Cl)cc(C(=O)NC(C)C)c1NC(=O)c1cc(CNS(=O)(=O)Cc2ccccc2C(F)(F)F)nn1-c1ncccc1Cl [Example 49] | 2.62
Cc1cc(C#N)cc(C(=O)NC(C)(C)C)c1NC(=O)c1cc(N2CCN(Cc3ccc(Cl)nc3)C2=O)nn1-c1ncccc1Cl [Example 30] | 3.02

same assay, conditions: reversed-phase HPLC column (C18), pH 2.7, HPLC reversed-phase C18, acidic range pH 2.7, 0.1% aqueous formic acid/acetonitrile; table of compounds of formula (I); read-out: log P

Structure (SMILES) | chromatographic logP
Cc1cc(C#N)cc(C(=O)NC(C)(C)C)c1NC(=O)c1cc(N2CCN(c3cc(C(F)(F)F)cc(C(F)(F)F)c3)C2=O)nn1-c1ncccc1Cl [Example 25] | 4.84
Cc1cc(C#N)cc(C(=O)NC(C)C)c1NC(=O)c1cc(N2CCN(c3cc(C(F)(F)F)cc(C(F)(F)F)c3)C2=O)nn1-c1ncccc1Cl [Example 27] | 4.55

Now from value to molecule:

chromatographic logP | Structure (SMILES)
4.1 | Cc1cc(Cl)cc(C(=O)NC(C)C)c1NC(=O)c1cc(CNS(=O)(=O)c2cc(C(F)(F)F)cc(C(F)(F)F)c2)nn1-c1ncccc1Cl [Example 35]
3.64 | Cc1cc(C#N)cc(C(=O)NC2CC2)c1NC(=O)c1cc(CN(Cc2cc(C(F)(F)F)cc(C(F)(F)F)c2)S(C)(=O)=O)nn1-c1ncccc1Cl [Example 62]
3.95 | Cc1cc(Cl)cc(C(=O)NC(C)C)c1NC(=O)c1cc(CNS(=O)(=O)Cc2cc(C(F)(F)F)cc(C(F)(F)F)c2)nn1-c1ncccc1Cl [Example 53]
4.08 | CNC(=O)c1cc(C#N)cc(C)c1NC(=O)c1cc(N2CCN(c3cc(C(F)(F)F)cc(C(F)(F)F)c3)C2=O)nn1-c1ncccc1Cl [Example 23]
4.38 | Cc1cc(Cl)cc(C(=O)NC(C)C2CC2)c1NC(=O)c1cc(CNS(=O)(=O)c2cc(C(F)(F)F)cc(C(F)(F)F)c2)nn1-c1ncccc1Cl (centres unmarked) [Example 34]
3.63 | Cc1cc(Cl)cc(C(=O)NC(C)C)c1NC(=O)c1cc(CNS(=O)(=O)c2c(C(F)(F)F)cccc2C(F)(F)F)nn1-c1ncccc1Cl [Example 41]
4 | Cc1cc(Cl)cc(C(=O)NC(C)C)c1NC(=O)c1cc(CNS(=O)(=O)c2ccc(C(F)(F)F)c(C(F)(F)F)c2)nn1-c1ncccc1Cl [Example 54]
4.97 | Cc1cc(Cl)cc(C(=O)NC(C)C)c1NC(=O)c1cc(N2CCN(c3cc(C(F)(F)F)cc(C(F)(F)F)c3)C2=O)nn1-c1ncccc1Cl [Example 26]
3.84 | Cc1cc(Cl)cc(C(=O)NC(C)C)c1NC(=O)c1cc(CNS(=O)(=O)c2cc(C(F)(F)F)ccc2C(F)(F)F)nn1-c1ncccc1Cl [Example 40]
3.94 | Cc1cc(Cl)cc(C(=O)NC(C)C)c1NC(=O)c1cc(CNS(=O)(=O)c2ccc(C(F)(F)F)cc2C(F)(F)F)nn1-c1ncccc1Cl [Example 42]

same assay, conditions: reversed-phase HPLC column (C18), pH 2.7, HPLC reversed-phase C18, acidic range pH 2.7; Preparation Examples (intermediates); read-out: logP

chromatographic logP | Structure (SMILES)
3.14 | COC(=O)c1cc(Nc2ccc(C(F)(F)F)cn2)nn1-c1ncccc1Cl [Example No. XX, Methyl 1-(3-chloropyridin-2-yl)-3-{[5-(trifluoromethyl)pyridin-2-yl]amino}-1H-pyrazole-5-carboxylate]
3.83 | COC(=O)c1cc(CN(C)S(=O)(=O)Cc2cc(C(F)(F)F)cc(C(F)(F)F)c2)nn1-c1ncccc1Cl [Example No. V, methyl 3-{[{[3,5-bis(trifluoromethyl)benzyl]sulphonyl}(methyl)amino]methyl}-1-(3-chloropyridin-2-yl)-1H-pyrazole-5-carboxylate]
2.79 | O=C(O)c1cc(Nc2ccc(C(F)(F)F)cn2)nn1-c1ncccc1Cl [Example No. III-10, 1-(3-Chloropyridin-2-yl)-3-{[5-(trifluoromethyl)pyridin-2-yl]amino}-1H-pyrazole-5-carboxylic acid]
1.09 | COC(=O)c1cc(N)nn1-c1ncccc1Cl [Example No. XIX, Methyl 3-amino-1-(3-chloropyridin-2-yl)-1H-pyrazole-5-carboxylate]
4.82 | CCOC(=O)c1cc(N2CCN(c3cc(C(F)(F)F)cc(C(F)(F)F)c3)C2=O)nn1-c1ncccc1Cl [Example No. VII-b, ethyl 3-{3-[3,5-bis(trifluoromethyl)phenyl]-2-oxoimidazolidin-1-yl}-1-(3-chloropyridin-2-yl)-1H-pyrazole-5-carboxylate]
3.07 | CN(Cc1cc(C(=O)O)n(-c2ncccc2Cl)n1)S(=O)(=O)Cc1cc(C(F)(F)F)cc(C(F)(F)F)c1 [Example No. III-1, 3-{[{[3,5-bis(trifluoromethyl)benzyl]sulphonyl}(methyl)amino]methyl}-1-(3-chloropyridin-2-yl)-1H-pyrazole-5-carboxylic acid]
3.47 | O=C(O)c1cc(N2CCN(c3cc(C(F)(F)F)cc(C(F)(F)F)c3)C2=O)nn1-c1ncccc1Cl [Example No. III-5, 3-{3-[3,5-bis(trifluoromethyl)phenyl]-2-oxoimidazolidin-1-yl}-1-(3-chloropyridin-2-yl)-1H-pyrazole-5-carboxylic acid]
1.67 | COC(=O)c1cc(C2CO2)nn1-c1ncccc1Cl (centres unmarked) [Example No. XI, Methyl 1-(3-chloropyridin-2-yl)-3-(oxiran-2-yl)-1H-pyrazole-5-carboxylate]
3.36 | O=C(O)c1cc(C#Cc2ccc(OC(F)(F)F)cc2)nn1-c1ncccc1Cl [Example No. III-3, 1-(3-chloropyridin-2-yl)-3-{[4-(trifluoromethoxy)phenyl]ethynyl}-1H-pyrazole-5-carboxylic acid]
2.86 | COC(=O)c1cc(Cc2ccc(C(F)(F)F)nc2)nn1-c1ncccc1Cl [Example No. VII-c, methyl 1-(3-chloropyridin-2-yl)-3-{[6-(trifluoromethyl)pyridin-3-yl]methyl}-1H-pyrazole-5-carboxylate]
3.54 | COC(=O)c1cc(C(=O)Nc2ccc(C(F)(F)F)cc2)nn1-c1ncccc1Cl [Example No. IX-e, methyl 1-(3-chloropyridin-2-yl)-3-{[4-(trifluoromethyl)phenyl]carbamoyl}-1H-pyrazole-5-carboxylate]
4.29 | CCOC(=O)c1cc(C(=O)C(=O)c2ccc(Cl)cc2Cl)nn1-c1ncccc1Cl [Example No. VIII, ethyl 1-(3-chloropyridin-2-yl)-3-[(2,4-dichlorophenyl)(oxo)acetyl]-1H-pyrazole-5-carboxylate]
2.33 | O=C(c1ccc(C(F)(F)F)nc1)c1cc(C(=O)O)n(-c2ncccc2Cl)n1 [Example No. III-6, 1-(3-chloropyridin-2-yl)-3-{[6-(trifluoromethyl)pyridin-3-yl]carbonyl}-1H-pyrazole-5-carboxylic acid]
0.9 | O=C(O)c1cc([N+](=O)[O-])nn1-c1ncccc1Cl [Example No. XVII, 1-(3-Chloropyridin-2-yl)-3-nitro-1H-pyrazole-5-carboxylic acid]
2.87 | CCOC(=O)c1cc(C(=O)CBr)nn1-c1ncccc1Cl [Example No. VIII-a, ethyl 3-(bromoacetyl)-1-(3-chloropyridin-2-yl)-1H-pyrazole-5-carboxylate]
